In patent US20240423988A1, “Improvement of Tumor Immunogenicity by Means of Splicing-Controlling Compound” (Kyoto University, priority 2021, published 2024):

Columns and labels:
[1] = tested on: various murine cancer cell lines (LLC, Pan02, WEHI3, CT26, EG7, B16, MC38); assay: RNA-seq analysis of splice-neoantigen producing events in various murine cancer cell lines; assay type: cell-based; settings: LLC, Pan02, WEHI3, CT26, EG7, B16
Procedure: [FIG. 5-2] Continuation of FIG. 5. D and E: RT-PCR analysis for splice-neoantigen coding forms (splice-NA forms) in MC38 cells treated with 10 µM Compound 1 or vehicle control (0.1% DMSO) for 6 hours. Actb served as a loading control. * represents p<0.05, ** represents p<0.01, and *** represents p<0.001. F: Splice-neoantigen producing rates calculated from RNA-seq data (n=3 biological replicates) are indicated as the APSI (Compound 1-DMSO). All data are shown as the mean±SEM. All experiments were performed at least twice. Statistical significance was determined using unpaired Student's t-test for (B) and (E).
Then, whether the Compound 1-induced splice-neoantigens are shared across cancer type was examined using murine lung carcinoma LLC, pancreatic ductal adenocarcinoma Pan02, leukemia WEHI3, colorectal adenocarcinoma CT26, lymphoma EG7, and skin melanoma B16 cells.
The effects of Compound 2 on RNA splicing events (splicing alterations) producing the aforementioned six splice-neoantigens in various murine cancer cell lines were investigated through RNA-Seq analysis in the same manner as in FIG. 5-2F, except that Compound 1 was replaced with Compound 2 (FIG. 8).

[2] = tested on: IKBKAP gene with IVS20+6T>C mutation; settings: in vitro and in vivo; cited from earlier work
[3] = Systemic administration of a high dose to normal mice for 4 weeks (autoimmune reactions); assay type: in vivo
Procedure: [FIG. 2-2] Continuation of FIG. 2. H to M: Compound 1 (100 mg/kg) or vehicle control (0.5% CMC-Na) was orally administered to 7-week-old female C57BL/6N mice twice daily for 7 continuous days (J and K) or once daily for 4 weeks (I, L, and M), while αPD-L1 antibody or isotype control (isotype IgG) was intraperitoneally injected once weekly. The experimental scheme is indicated in (H). Body weights (n=6/group) were monitored weekly (I). Mice were sacrificed on day 7 (n=5/group) to analyze peripheral blood (J) and spleen (K).
[FIG. 2-3] Continuation of FIG. 2. Land M: Mice were sacrificed on day 28 (n=3/group) to perform CD8 immunohistochemical staining (IHC). Scale bars represent 50 μm. The number of CD8+ cells was counted using ImageJ software in three areas of each tissue. All data are shown as the mean±SEM. Experiments were performed at least twice for B to G, or once for others. *** p<0.001 vs. vehicle control was determined using one-way ANOVA followed by Bonferroni's multiple comparisons test.
Next, to determine whether the enhancement of cancer immunity by co-administration of Compound 1 and αPD-L1 raises concerns regarding autoimmune reactions, a high dose of Compound 1 was systemically administered to normal mice for 4 weeks (FIG. 2-2H).

MC38 tumors = assay: MC38 tumor-bearing model; assay type: in vivo
Procedure: (§1) [FIG. 1-1] FIG. 1. Chemical activation of SRSFs exerts antitumor effects in a CD8^+ T cell-dependent manner and potentiates the response to PD-1 blockade. A: Experimental procedure involving an MC38 tumor-bearing model. B and C: Tumor volumes (B) and survival (C) are shown (n=12/group). ** represents p<0.01; and *** represents p<0.001. D and E: MC38 cells were treated with Compound 1 for 72 hours (D) or for the indicated time (E). Cell proliferation and cell death were measured using CCK-8 and LDH assays, respectively (n=3/group). F and G: Representative images (F) and quantitative data (G) of flow cytometry are shown (n=[…]/group). * represents p<0.05. H: Experimental procedure of antibody injection in an MC38 tumor-bearing model.
[FIG. 1-2] Continuation of FIG. 1. I to L; Representative images (I and K) and quantitative data (J and L) of flow cytometry are shown (n=7/group for spleen (J); n=10/group for tumor (L)). *** represents p<0.001. M and N: Tumor growth curves (M) and tumor volumes on day 23 (N) are shown (n=10/group). * represents p<0.05. “ns” represents “not significant”. O and P: Tumor volumes of mice (n=12/group) are shown collectively (O) or individually (P). ** represents p<0.01, and *** represents p<0.001, vs. isotype IgG+vehicle. # represents p<0.05, and […] represents p<0.001, between the indicated groups. Q: Changes in body weight of mice (n=5/group). In FIG. 1, all data are shown as the mean±SEM. All experiments were performed at least twice. Statistical significance was determined using unpaired Student's t-test for (G), (J), (L), and (N), and one-way ANOVA followed by Bonferroni's multiple comparisons test for (B) and (O).
(§2) First, in vivo activity was assessed using syngeneic MC38 tumors intradermally transplanted into […] mice (FIG. 1-1A).
Based on these observations, whether the Compound 1 induced antitumor effects were due to enhanced cancer immunity was then examined. Endogenous CD8^+ T cells were depleted using CD8-depleting antibody (αCD8), and the antitumor effects of Compound 1 administration were evaluated (FIG. 1-1H).

[4] = tested on: splenocytes (CD8^+ and CD4^+ T cells); assay: Ex vivo splenocyte culture assay (antigen-independent T cell activation); assay type: cell-based, mice; settings: 24 hours
MC38 cells = assay: Cell proliferation and cell death, CCK-8 and LDH assays; assay type: cell-based, murine; settings: concentrations effective in vivo
Procedure: as §1, §2

[5] = syngeneic MC38 tumors intradermally transplanted

Clc1nc(NCc2ccco2)c2[nH]cnc2n1 [Compound 1]
induced splice alterations shared across cancer type [1]: shared in most of the examined cells | aberrant splicing in the IKBKAP gene [2]: able to improve | leukocyte numbers and biochemical parameters in peripheral blood ([3]; data not shown): no alterations were observed | spleen weight, leukocyte numbers, and expression of T cell activation markers in spleen and peripheral blood ([3]; day 7, with or without αPD-L1): no effect | histological analysis of non-malignant tissues: CD8^+ T cells, inflammatory lesions ([3]; day 28, irrespective of co-treatment with αPD-L1): did not result in the accumulation of CD8^+ T cells or appearance of inflammatory lesions | body weight changes ([3]; throughout 4 weeks, with or without αPD-L1): comparable | tumor suppression when CD8^+ T cells were depleted (MC38 tumors; CD8-depleting antibody (αCD8)): not effective | suppressed tumor growth (MC38 tumors; day 23, vs. isotype IgG+vehicle): 28.5% | frequency of tumor-infiltrating CD8+ T cells (MC38 tumors; extracted tumors, flow cytometry): about 1.5 fold | changes in the expression of PD-L1 (MC38 tumors; host dendritic cells or macrophages): not detected | body weight or apparent adverse effects (MC38 tumors; mouse, in vivo): no change in body weight or apparent adverse effects | in vivo tumor growth (MC38 tumors; [5]): tumor growth suppression | survival (MC38 tumors; [5]): prolonged survival | CD44^+ and CD69^+ marker expressions in CD8^+ and CD4^+ T cells ([4]; flow cytometry): no such effects | secretion of inflammatory cytokines IFN-γ and TNF-α ([4]; supernatant): not observed | cytotoxicity or cytostasis in vitro (MC38 cells): not associated with cytotoxicity or cytostasis
